Test system: ANKA strain of P. berghei
Assay: single dose STI in vivo screen in infected mice
Design: species or system Plasmodium berghei
Conditions: for Activity (%) po / Activity (%) sc / Activity (%) SSVpo / Activity (%) 3 mg/kg SSV po / Activity (%) 10 mg/kg SSV po: percent reduction in parasitemia day 3 post-infection; for Activity (%) po / Survival (days) po: single 10 mg/kg po in 3% ethanol and 7% Tween 80; for Activity (%) po / Activity (%) sc / Activity (%) SSVpo: mice; for Activity (%) sc / Survival (days) sc: single 10 mg/kg sc in 3% ethanol and 7% Tween 80; for Survival (days) po / Survival (days) sc / Survival (days) SSVpo: untreated control 5.6 ± 0.3; for Activity (%) SSVpo: single po dose in standard suspending vehicle (SSV); for Survival (days) SSVpo: single po dose in SSV; for Activity (%) 10 mg/kg SSV po / Survival (days) 10 mg/kg SSV po: single 10 mg/kg po in SSV
Protocol: In the single dose STI in vivo screen, Moro SPF or NMRI mice infected with the ANKA strain of P. berghei (groups of 3-5 mice) were treated on day one post-infection with trioxolanes dissolved or suspended in 3% ethanol and 7% Tween 80. […] SSV consists of 0.5% w/v CMC, 0.5% v/v benzyl alcohol, 0.4% v/v Tween 80, and 0.9% w/v sodium chloride in water. Antimalarial activity was measured by percent reduction in parasitemia on day three post-infection and survival times compared to an untreated control group. Survival to day 30 post-infection is considered to be a cure. […] Other factors influencing antimalarial activity include the stability of carbon radicals formed by β-scission subsequent to the initial electron transfer to the peroxide bond and the influence of steric effects remote from the peroxide bond on the interactions between carbon radicals and potential drug targets.

Compound | Activity (%) po | Activity (%) sc | Survival (days) po | Survival (days) sc | Activity (%) 3 mg/kg SSV po (single 3 mg/kg po in SSV) [%] | Activity (%) 10 mg/kg SSV po | Survival (days) 10 mg/kg SSV po | also measured
CCOC(=O)CCC1CCCCC12OOC1(O2)C2CC3CC(C2)CC1C3 (centres unmarked) [OZ08] | 99.7% | 99.9% | 8.0 days | 9.7 days | – | – | – | –
FC(F)(F)c1cccc(C2(c3cccc(C(F)(F)F)c3)OOC3(O2)C2CC4CC(C2)CC3C4)c1 (centres unmarked) [OZ46] | 99% | 62% | 7.7 days | 6.0 days | – | – | – | –
FC(F)(F)c1ccc(C2CCC3(CC2)OOC2(O3)C3CC4CC(C3)CC2C4)cc1 (centres unmarked) [OZ48] | 99.8% | 42% | 8.7 days | 6.3 days | – | – | – | –
CCOC(=O)CCC(=O)N1CCC2(CC1)OOC1(O2)C2CC3CC(C2)CC1C3 (centres unmarked) [OZ53] | 9% | 58% | 6.0 days | 6.3 days | – | – | – | –
O=C(C[n+]1ccccc1)NN=C1CCC2(CC1)OOC1(O2)C2CC3CC(C2)CC1C3.[Cl-] (centres unmarked) [OZ55] | 45% | 97% | 6.0 days | 7.3 days | – | – | – | –
O=C(c1ccncc1)N1CCC2(CC1)OOC1(O2)C2CC3CC(C2)CC1C3 (centres unmarked) [OZ100] | 61% | 80% | 6.7 days | 7.0 days | – | – | – | Activity (%) SSVpo: 36%; Survival (days) SSVpo: 6.3 days
O=C(COc1ccc(Cl)cc1)N1CCC2(CC1)OOC1(O2)C2CC3CC(C2)CC1C3 (centres unmarked) [OZ101] | 44% | 99.97% | 6.3 days | 13 days | – | – | – | Activity (%) SSVpo: 0%; Survival (days) SSVpo: 5.3 days
O=C(Nc1ccccc1)N1CCC2(CC1)OOC1(O2)C2CC3CC(C2)CC1C3 (centres unmarked) [OZ102] | 92% | 99.97% | 7.0 days | 19.7 days | – | – | – | Activity (%) SSVpo: 73%; Survival (days) SSVpo: 6.7 days
CC(C)(O)[C@H]1CC[C@]2(CC1)OOC1(O2)C2CC3CC(C2)CC1C3 (some centres unmarked) [OZ108] | 0/0/0% | 0/0/0% | – | – | – | – | – | Activity (%) SSVpo: 0/0/0%; Survival (days) SSVpo: 5.0 days
OC[C@H]1CC[C@]2(CC1)OOC1(O2)C2CC3CC(C2)CC1C3 (some centres unmarked) [OZ119] | – | – | – | – | – | – | – | Survival (days) SSVpo: 8.0 days
O=C1c2ccccc2C(=O)N1[C@H]1CC[C@]2(CC1)OOC1(O2)C2CC3CC(C2)CC1C3 (some centres unmarked) [OZ136] | 0/0/0% | 0/0/0% | 6.0/6.0/6.0 days | 6.0/6.0/6.0 days | – | – | – | Activity (%) SSVpo: 0/0/0%; Survival (days) SSVpo: 6.0/6.0/6.0 days
N[C@H]1CC[C@]2(CC1)OOC1(O2)C2CC3CC(C2)CC1C3 (some centres unmarked) [OZ137] | 0% | 61% | – | – | – | – | – | Activity (%) SSVpo: 6%; Survival (days) SSVpo: 6.3 days
Cc1ccc(NC(=O)N2CCC3(CC2)OOC2(O3)C3CC4CC(C3)CC2C4)cc1 (centres unmarked) [OZ142] | 0% | 99.98% | 6.0 days | 14.3 days | – | – | – | Activity (%) SSVpo: 2%; Survival (days) SSVpo: 6.3 days
O=C1c2ccccc2C(=O)N1C[C@H]1CC[C@]2(CC1)OOC1(O2)C2CC3CC(C2)CC1C3 (some centres unmarked) [OZ146] | 62% | 91% | – | – | – | – | – | Activity (%) SSVpo: 40%; Survival (days) SSVpo: 6.3 days
O=C(N1CCOCC1)N1CCC2(CC1)OOC1(O2)C2CC3CC(C2)CC1C3 (centres unmarked) [OZ188] | 93% | 99.87% | 8.7 days | 9.0 days | – | – | – | Activity (%) SSVpo: 98%; Survival (days) SSVpo: 10.0 days
O=C(Nc1ccc(Cl)cc1)N1CCC2(CC1)OOC1(O2)C2CC3CC(C2)CC1C3 (centres unmarked) [OZ192] | 38% | 99.98% | 6.0 days | 13.7 days | – | – | – | Activity (%) SSVpo: 45%; Survival (days) SSVpo: 7.0 days
O=C(NC[C@H]1CC[C@]2(CC1)OO[C@]1(O2)C2CC3CC(C2)CC1C3)N1CCOCC1 [OZ272] | – | – | – | – | 49 | 98% | – | –
O=C(NC[C@H]1CC[C@]2(CC1)OOC1(O2)C2CC3CC(C2)CC1C3)c1ccccc1O (some centres unmarked) [OZ280] | – | – | – | – | – | 0/ND % | 5.7ND days | –
O=C(NC[C@H]1CC[C@]2(CC1)OOC1(O2)C2CC3CC(C2)CC1C3)c1ccc(O)nc1 (some centres unmarked) [OZ282] | – | – | – | – | 53 | – | 8.3 days | –
Nc1ncccc1C(=O)NC[C@H]1CC[C@]2(CC1)OOC1(O2)C2CC3CC(C2)CC1C3 (some centres unmarked) [OZ284] | – | – | – | – | 61 | 97% | 9.0 days | –

Compound | Activity (%) po | Activity (%) sc | Survival (days) po | Survival (days) sc | Activity (%) 3 mg/kg SSV po (single 3 mg/kg po in SSV) [%] | Activity (%) 10 mg/kg SSV po | Survival (days) 10 mg/kg SSV po | also measured
CCNC(=O)NC[C@H]1CC[C@]2(CC1)OO[C@]1(O2)C2CC3CC(C2)CC1C3 [OZ291] | – | – | – | – | 34 | 98% | 8.0 days | –
c1cncc(NC[C@H]2CC[C@]3(CC2)OO[C@]2(O3)C3CC4CC(C3)CC2C4)c1 [OZ293] | – | – | – | – | 77 | – | 8.8 days | –
NS(=O)(=O)c1ccc(NC[C@H]2CC[C@]3(CC2)OO[C@]2(O3)C3CC4CC(C3)CC2C4)cc1 [OZ298] | – | – | – | – | 98 | 99.95% | 9.4 days | –
O=CN1CCN(C[C@H]2CC[C@]3(CC2)OO[C@]2(O3)C3CC4CC(C3)CC2C4)CC1 [OZ303] | – | – | – | – | 69 | 99.01% | 8.6 days | –
O=C(NC[C@H]1CC[C@]2(CC1)OO[C@]1(O2)C2CC3CC(C2)CC1C3)c1ccccn1 [OZ304] | – | – | – | – | 61 | 98% | 8.2 days | –
CS(=O)(=O)N(CC(N)=O)C[C@H]1CC[C@]2(CC1)OO[C@]1(O2)C2CC3CC(C2)CC1C3 [OZ308] | – | – | – | – | 30 | 86% | 7.8 days | –
Cn1ccnc1S(=O)(=O)C[C@H]1CC[C@]2(CC1)OO[C@]1(O2)C2CC3CC(C2)CC1C3 [OZ310] | – | – | – | – | 38 | 81% | 7.8 days | –
NC(=O)C1CCN(C(=O)C[C@H]2CC[C@]3(CC2)OO[C@]2(O3)C3CC4CC(C3)CC2C4)CC1 [OZ311] | – | – | – | – | 40 | 80% | 8.6 days | –
O=C(C[C@H]1CC[C@]2(CC1)OO[C@]1(O2)C2CC3CC(C2)CC1C3)N1CCN(c2ncccn2)CC1 [OZ314] | – | – | – | – | 11 | 13% | – | –
Cc1ccc(S(=O)(=O)O)cc1.N[C@H]1CC[C@H](NC(=O)C[C@H]2CC[C@]3(CC2)OO[C@]2(O3)C3CC4CC(C3)CC2C4)CC1 [OZ315] | – | – | – | – | 92 | – | – | –
O=C(CNC(=O)c1cccnc1)NC[C@H]1CC[C@]2(CC1)OO[C@]1(O2)C2CC3CC(C2)CC1C3 [OZ316] | – | – | – | – | 7 | 69% | 10.0 days | –
CCOC(=O)CCNCC1CCC2(CC1)OOC1(O2)C2CC3CC(C2)CC1C3.Cc1ccc(S(=O)(=O)O)cc1 (centres unmarked) [OZ318] | – | – | – | – | 29 | 88% | – | –
NC(=O)c1cncn1C[C@H]1CC[C@]2(CC1)OO[C@]1(O2)C2CC3CC(C2)CC1C3 [OZ321] | – | – | – | – | 64 | 99.77% | 14.0 days | –
O=S(=O)(C[C@H]1CC[C@]2(CC1)OO[C@]1(O2)C2CC3CC(C2)CC1C3)c1cccc[n+]1[O-] [OZ324] | – | – | – | – | – | 60% | – | –
Cn1nnnc1SC[C@H]1CC[C@]2(CC1)OO[C@]1(O2)C2CC3CC(C2)CC1C3 [OZ331] | – | – | – | – | 66 | 99.47% | 9.0 days | –
Cn1nnnc1S(=O)(=O)C[C@H]1CC[C@]2(CC1)OO[C@]1(O2)C2CC3CC(C2)CC1C3 [OZ332] | – | – | – | – | 0 | 8% | – | –
O=C(NC[C@H]1CC[C@]2(CC1)OO[C@]1(O2)C2CC3CC(C2)CC1C3)[C@@H]1CCCN1 [OZ337] | – | – | – | – | 97 | 99.92% | 8.6 days | Survival (days) 3 mg/kg SSV po (single 3 mg/kg po in SSV): 11.6 days
N[C@H]1CCN(C(=O)C[C@H]2CC[C@]3(CC2)OO[C@]2(O3)C3CC4CC(C3)CC2C4)C1 [OZ338] | – | – | – | – | 99.80 | 99.93% | 9.8 days | –
N=C(N)NC(=O)C[C@H]1CC[C@]2(CC1)OO[C@]1(O2)C2CC3CC(C2)CC1C3 [OZ341] | – | – | – | – | 32 | 97% | 8.0 days | –
O=C(C[C@H]1CC[C@]2(CC1)OO[C@]1(O2)C2CC3CC(C2)CC1C3)N1CCS(=O)(=O)CC1 [OZ342] | – | – | – | – | 0 | 27% | 6.8 days | –

— patent US6906205B2, “Spiro and dispiro 1,2,4-trioxolane antimalarials” (Medicines for Malaria Venture MMV, priority 2002, dated 2005)
